What was measured:
β17-estradiol (E2) = experiment: circulating E2 concentration, same clinical trial; type: in vivo, human; conditions: for median E2 level: Delayed-ABT cohort, Compound (VI) alone
Method: (§1) The experiments described in this example were conducted as part of a single-center, open-label, randomized, parallel-group clinical trial in 32 pre-menopausal women. Following screening assessments, and during the second half of the menstrual cycle, women received norethindrone (5 mg, three-times daily for 10 days) to synchronize menstrual cycles. After menstrual cycle synchronization, subjects were randomized with a 1:1 ratio to one of two treatment arms: (i) a cohort receiving once-daily administration of compound (VI) (200 mg per day, administered in the form of a choline salt) with concurrent onset of add-back therapy administration for 10 weeks (“Concurrent-ABT”), or (ii) a cohort receiving pre-treatment with compound (VI) (200 mg per day, administered in the form of a choline salt) for 4 weeks followed by combined daily administration of compound (VI) and add-back therapy (“Delayed-ABT”). The add-back therapy used in these experiments contained 1.0 mg of E2 and 0.5 mg of norethindrone acetate, and was administered to subjects once daily.
(§2) The main treatment outcomes and endpoints measured during these experiments included (i) a qualitative assessment of uterine blood loss, which was recorded on a daily basis throughout the study by characterizing each subject's bleeding pattern using one of the following four categories: “no bleeding,” “spotting” (light staining, dark blood, no sanitary protection needed or only panty liner), “bleeding” (1-4 completely soiled maxi sanitary towels or 1-8 soiled tampons or equivalent combination of the two), or “heavy bleeding” (>4 completely soiled maxi sanitary towels or >8 soiled tampons or equivalent combination of the two); (ii) a bi-weekly assessment of each subject's circulating E2 concentration; (iii) a bi-weekly assessment of each subject's circulating progesterone concentration (measured using a validated commercial chemiluminescence immunoassay method (Elecsys Progesterone III, Roche, Burgess Hill, UK)); (iv) the pharmacokinetic profile of compound (VI) and the add-back therapy; and (v) adverse events.

[1] = adverse events, same clinical trial; type: in vivo, human
Method: as §1, §2

[2] = Days 1-14, treatment A (Concurrent-ABT), N=16
[3] = Days 1-14, treatment B (Delayed-ABT), N=16
[4] = Days 15-28, Overall (A+B), N=32
[5] = Days 15-28, treatment A (Concurrent-ABT), N=16
[6] = Days 15-28, treatment B (Delayed-ABT), N=16
[7] = Days 29-42, Overall (A+B), N=29
[8] = Days 29-42, treatment A (Concurrent-ABT), N=14
[9] = Days 29-42, treatment B (Delayed-ABT), N=15
[10] = Days 43-56, Overall (A+B), N=29
[11] = Days 43-56, treatment A (Concurrent-ABT), N=14
[12] = Days 43-56, treatment B (Delayed-ABT), N=15
[13] = Days 57-70, Overall (A+B), N=29
[14] = Days 57-70, treatment A (Concurrent-ABT), N=14
[15] = Days 57-70, treatment B (Delayed-ABT), N=15
[16] = events of all reported adverse events, both cohorts

COc1cc(F)c(-n2c(=O)[nH]c3csc(C(=O)O)c3c2=O)cc1OCc1c(OC)ccc(F)c1F [Compound (VI), 3-[2-fluoro-5-(2,3-difluoro-6-methoxybenzyloxy)4-methoxyphenyl]-2,4-dioxo-1,2,3,4-tetrahydrothieno [3,4d]pyrimidine-5-carboxylic acid]
median E2 levels, window never left (β17-estradiol (E2); Concurrent-ABT cohort, whole study): 20 to 50 pg/mL | median E2 level (β17-estradiol (E2); by week 2): 3.7 pg/mL | median E2 level (β17-estradiol (E2); by week 4): 4.1 pg/mL | hot flushes, cohort of occurrence ([1]; Concurrent-ABT versus Delayed-ABT): exclusively occurred in the “Delayed-ABT” group | Hot Flush, subjects (%), Plasma Estradiol Level 20-50 pg/mL ([1]; Days 1-14, Overall (A+B), N=32): (0.0%) | Hot Flush, subjects (%), Plasma Estradiol Level <20 pg/mL ([1]; Days 1-14, Overall (A+B), N=32): (6.3%) | Hot Flush, subjects (%), Plasma Estradiol Level >50 pg/mL ([1]; Days 1-14, Overall (A+B), N=32): (0.0%) | Hot Flush, subjects (n), Plasma Estradiol Level 20-50 pg/mL ([1]; Days 1-14, Overall (A+B), N=32): 0 | Hot Flush, subjects (n), Plasma Estradiol Level <20 pg/mL ([1]; Days 1-14, Overall (A+B), N=32): 2 | Hot Flush, subjects (n), Plasma Estradiol Level >50 pg/mL ([1]; Days 1-14, Overall (A+B), N=32): 0 | Hot Flush, subjects (%), Plasma Estradiol Level 20-50 pg/mL [1, 2]: (0.0%) | Hot Flush, subjects (%), Plasma Estradiol Level <20 pg/mL [1, 2]: (0.0%) | Hot Flush, subjects (%), Plasma Estradiol Level >50 pg/mL [1, 2]: (0.0%) | Hot Flush, subjects (n), Plasma Estradiol Level 20-50 pg/mL [1, 2]: 0 | Hot Flush, subjects (n), Plasma Estradiol Level <20 pg/mL [1, 2]: 0 | Hot Flush, subjects (n), Plasma Estradiol Level >50 pg/mL [1, 2]: 0 | Hot Flush, subjects (%), Plasma Estradiol Level 20-50 pg/mL [1, 3]: (0.0%) | Hot Flush, subjects (%), Plasma Estradiol Level <20 pg/mL [1, 3]: (12.5%) | Hot Flush, subjects (%), Plasma Estradiol Level >50 pg/mL [1, 3]: (0.0%) | Hot Flush, subjects (n), Plasma Estradiol Level 20-50 pg/mL [1, 3]: 0 | Hot Flush, subjects (n), Plasma Estradiol Level <20 pg/mL [1, 3]: 2 | Hot Flush, subjects (n), Plasma Estradiol Level >50 pg/mL [1, 3]: 0 | Hot Flush, subjects (%), Plasma Estradiol Level 20-50 pg/mL [1, 4]: (0.0%) | Hot Flush, subjects (%), Plasma Estradiol Level <20 pg/mL [1, 4]: (12.5%) | Hot Flush, subjects (%), Plasma Estradiol Level >50 pg/mL [1, 4]: (0.0%) | Hot Flush, subjects (n), Plasma Estradiol Level 20-50 pg/mL [1, 4]: 0 | Hot Flush, subjects (n), Plasma Estradiol Level <20 pg/mL [1, 4]: 4 | Hot Flush, subjects (n), Plasma Estradiol Level >50 pg/mL [1, 4]: 0 | Hot Flush, subjects (%), Plasma Estradiol Level 20-50 pg/mL [1, 5]: (0.0%) | Hot Flush, subjects (%), Plasma Estradiol Level <20 pg/mL [1, 5]: (0.0%) | Hot Flush, subjects (%), Plasma Estradiol Level >50 pg/mL [1, 5]: (0.0%) | Hot Flush, subjects (n), Plasma Estradiol Level 20-50 pg/mL [1, 5]: 0 | Hot Flush, subjects (n), Plasma Estradiol Level <20 pg/mL [1, 5]: 0 | Hot Flush, subjects (n), Plasma Estradiol Level >50 pg/mL [1, 5]: 0 | Hot Flush, subjects (%), Plasma Estradiol Level 20-50 pg/mL [1, 6]: (0.0%) | Hot Flush, subjects (%), Plasma Estradiol Level <20 pg/mL [1, 6]: (25.0%) | Hot Flush, subjects (%), Plasma Estradiol Level >50 pg/mL [1, 6]: (0.0%) | Hot Flush, subjects (n), Plasma Estradiol Level 20-50 pg/mL [1, 6]: 0 | Hot Flush, subjects (n), Plasma Estradiol Level <20 pg/mL [1, 6]: 4 | Hot Flush, subjects (n), Plasma Estradiol Level >50 pg/mL [1, 6]: 0 | Hot Flush, subjects (%), Plasma Estradiol Level 20-50 pg/mL [1, 7]: (10.3%) | Hot Flush, subjects (%), Plasma Estradiol Level <20 pg/mL [1, 7]: (6.9%) | Hot Flush, subjects (%), Plasma Estradiol Level >50 pg/mL [1, 7]: (0.0%) | Hot Flush, subjects (n), Plasma Estradiol Level 20-50 pg/mL [1, 7]: 3 | Hot Flush, subjects (n), Plasma Estradiol Level <20 pg/mL [1, 7]: 2 | Hot Flush, subjects (n), Plasma Estradiol Level >50 pg/mL [1, 7]: 0 | Hot Flush, subjects (%), Plasma Estradiol Level 20-50 pg/mL [1, 8]: (0.0%) | Hot Flush, subjects (%), Plasma Estradiol Level <20 pg/mL [1, 8]: (0.0%) | Hot Flush, subjects (%), Plasma Estradiol Level >50 pg/mL [1, 8]: (0.0%) | Hot Flush, subjects (n), Plasma Estradiol Level 20-50 pg/mL [1, 8]: 0 | Hot Flush, subjects (n), Plasma Estradiol Level <20 pg/mL [1, 8]: 0 | Hot Flush, subjects (n), Plasma Estradiol Level >50 pg/mL [1, 8]: 0 | Hot Flush, subjects (%), Plasma Estradiol Level 20-50 pg/mL [1, 9]: (20.0%) | Hot Flush, subjects (%), Plasma Estradiol Level <20 pg/mL [1, 9]: (13.3%) | Hot Flush, subjects (%), Plasma Estradiol Level >50 pg/mL [1, 9]: (0.0%) | Hot Flush, subjects (n), Plasma Estradiol Level 20-50 pg/mL [1, 9]: 3 | Hot Flush, subjects (n), Plasma Estradiol Level <20 pg/mL [1, 9]: 2 | Hot Flush, subjects (n), Plasma Estradiol Level >50 pg/mL [1, 9]: 0 | Hot Flush, subjects (%), Plasma Estradiol Level 20-50 pg/mL [1, 10]: (0.0%) | Hot Flush, subjects (%), Plasma Estradiol Level <20 pg/mL [1, 10]: (3.4%) | Hot Flush, subjects (%), Plasma Estradiol Level >50 pg/mL [1, 10]: (0.0%) | Hot Flush, subjects (n), Plasma Estradiol Level 20-50 pg/mL [1, 10]: 0 | Hot Flush, subjects (n), Plasma Estradiol Level <20 pg/mL [1, 10]: 1 | Hot Flush, subjects (n), Plasma Estradiol Level >50 pg/mL [1, 10]: 0 | Hot Flush, subjects (%), Plasma Estradiol Level 20-50 pg/mL [1, 11]: (0.0%) | Hot Flush, subjects (%), Plasma Estradiol Level <20 pg/mL [1, 11]: (0.0%) | Hot Flush, subjects (%), Plasma Estradiol Level >50 pg/mL [1, 11]: (0.0%) | Hot Flush, subjects (n), Plasma Estradiol Level 20-50 pg/mL [1, 11]: 0 | Hot Flush, subjects (n), Plasma Estradiol Level <20 pg/mL [1, 11]: 0 | Hot Flush, subjects (n), Plasma Estradiol Level >50 pg/mL [1, 11]: 0 | Hot Flush, subjects (%), Plasma Estradiol Level 20-50 pg/mL [1, 12]: (0.0%) | Hot Flush, subjects (%), Plasma Estradiol Level <20 pg/mL [1, 12]: (6.7%) | Hot Flush, subjects (%), Plasma Estradiol Level >50 pg/mL [1, 12]: (0.0%) | Hot Flush, subjects (n), Plasma Estradiol Level 20-50 pg/mL [1, 12]: 0 | Hot Flush, subjects (n), Plasma Estradiol Level <20 pg/mL [1, 12]: 1 | Hot Flush, subjects (n), Plasma Estradiol Level >50 pg/mL [1, 12]: 0 | Hot Flush, subjects (%), Plasma Estradiol Level 20-50 pg/mL [1, 13]: (0.0%) | Hot Flush, subjects (%), Plasma Estradiol Level <20 pg/mL [1, 13]: (0.0%) | Hot Flush, subjects (%), Plasma Estradiol Level >50 pg/mL [1, 13]: (0.0%) | Hot Flush, subjects (n), Plasma Estradiol Level 20-50 pg/mL [1, 13]: 0 | Hot Flush, subjects (n), Plasma Estradiol Level <20 pg/mL [1, 13]: 0 | Hot Flush, subjects (n), Plasma Estradiol Level >50 pg/mL [1, 13]: 0 | Hot Flush, subjects (%), Plasma Estradiol Level 20-50 pg/mL [1, 14]: (0.0%) | Hot Flush, subjects (%), Plasma Estradiol Level <20 pg/mL [1, 14]: (0.0%) | Hot Flush, subjects (%), Plasma Estradiol Level >50 pg/mL [1, 14]: (0.0%) | Hot Flush, subjects (n), Plasma Estradiol Level 20-50 pg/mL [1, 14]: 0 | Hot Flush, subjects (n), Plasma Estradiol Level <20 pg/mL [1, 14]: 0 | Hot Flush, subjects (n), Plasma Estradiol Level >50 pg/mL [1, 14]: 0 | Hot Flush, subjects (%), Plasma Estradiol Level 20-50 pg/mL [1, 15]: (0.0%) | Hot Flush, subjects (%), Plasma Estradiol Level <20 pg/mL [1, 15]: (0.0%) | Hot Flush, subjects (%), Plasma Estradiol Level >50 pg/mL [1, 15]: (0.0%) | Hot Flush, subjects (n), Plasma Estradiol Level 20-50 pg/mL [1, 15]: 0 | Hot Flush, subjects (n), Plasma Estradiol Level <20 pg/mL [1, 15]: 0 | Hot Flush, subjects (n), Plasma Estradiol Level >50 pg/mL [1, 15]: 0 | tolerability ([1]; both cohorts): well-tolerated | adverse events: headache [1, 16]: 38/166 | adverse events: hot flushes [1, 16]: 19/166

From patent publication US20230067378A1, “COMPOSITIONS AND METHODS FOR THE TREATMENT OF ESTROGEN-DEPENDENT DISORDERS” (ObsEva S.A., priority 2018, published 2023)
